The text below walks through data of PMC7766104, “Inhibition of Biofilm Formation by Modified Oxylipins from the Shipworm Symbiont Teredinibacter turnerae” (Marine Drugs, 2020).

The IC50 is the point on the concentration scale where inhibition reaches its midpoint.

≈ marks a conversion by molar mass, not a printed value. Entries after “also recorded” stand apart in the source; their conditions may differ.

Data set [1] relates to S. epidermidis RP62A (ATCC 35984) biofilm formation. Description: Biofilm inhibition assay (WGA488 staining of formed biofilm). It counts as cell-based, Staphylococcus epidermidis. To be noted: for Selectivity Index (MICPlanktonic/MBICBiofilm): S. epidermidis RP62A, MIC planktonic / MBIC biofilm; for MBIC S. epidermidis RP62A (ATCC 35984): lowest concentration causing >98% inhibition of biofilm formation, two independent trials in quadruplicates. The text has this:
(§1) All seven compounds were subjected to a panel of bioactivity assays to assess their effects on staphylococcal pathogens and mammalian cells (Table 2). […] This fluorescent stain specifically binds to sialic acid and the N-acetylglucosaminyl residues of the biofilm. […] Growth inhibition in the microbial pathogens was quantified by monitoring the conversion of resazurin to the fluorescent resorufin product.
(§2) The biofilm inhibition assay was done according to the method of Skogman et al. (2012). […] A single colony from the CRA plate was transferred in 50 mL trypticasein soy broth supplemented with glucose (TSBg) and grown overnight at 35 °C, 150 rpm. The turbidity of the culture was adjusted to match the 0.5 McFarland standard (1 × 10^8 cells/mL) and diluted 100-fold prior to inoculation in a 96-well plate. […] TSBg served as the negative control, and positive controls were chloramphenicol (Sigma-Aldrich) for planktonic cells and dispersin B (Kane Biotech) for biofilms. Dispersin B is a 40 kDa glycoside hydrolase which dissolves mature bacterial biofilms. The plates were incubated for 20 h at 37 °C without shaking to facilitate biofilm formation. At the end of the incubation period, the planktonic suspension was transferred to another 96-well plate to assess cell viability. A 20 µL-aliquot of 0.02% resazurin was added to each well and incubated for 30 min at 37 °C, 150 rpm. Fluorescence was measured using a 530 nm excitation filter and a 590 nm emission filter. To quantify the formed biofilm, 100 µL-aliquot of wheat germ agglutinin Alexa Fluor 488 (WGA488) probe (50 µg/mL) was added to each well of the original plate and incubated in the dark at 4 °C for 5 h. At the end of incubation, the plate was washed with sterile PBS (3×) and air-dried at room temperature to remove the unbound WGA488 probe. Bound stain to the biofilm was dissolved in 33% glacial acetic acid and quantified by fluorescence measurement at 485 nm/420 nm excitation filters, and 528 nm/520 nm emission filters. […] This was done in two independent trials with four independent replicates.

The subject of data set [2] is planktonic S. epidermidis RP62A (ATCC 35984). Description: Planktonic cell viability, resazurin (from biofilm assay plate). Particulars: for MIC: Staphylococcus epidermidis, ATCC35984, planktonic cells, lowest concentration with >98% growth inhibition; for bioactivity against microbial pathogens or mammalian cells (in words): statement covers the whole panel of Table 2 (staphylococcal pathogens and MDCK cells). The data set is classed as cell-based, Staphylococcus epidermidis.
Text: as §1, §2

Data set [3] concerns Methicillin-resistant S. aureus (ATCC 43300). In words: Antimicrobial microdilution assay (resazurin). It counts as cell-based. Particulars: Staphylococcus aureus; planktonic; >98% growth inhibition; 24 h; read-out: MIC Methicillin-Resistant S. aureus (ATCC 43,300). On the procedure:
as §1
(§3) After 24 h of incubation, 0.02% resazurin (20 µL) was added to each well, and the fluorescence was measured at 530 nm excitation and 590 nm emission. MIC is the lowest concentration at which there was no reduction of the rezasurin dye, equivalent to 98% inhibition of microbial growth. Assays were done in two independent trials with four independent replicates.

Data set [4] concerns S. aureus (ATCC 6538). In words: Antimicrobial microdilution assay (resazurin). It counts as cell-based. Particulars: Staphylococcus aureus, ATCC6538; planktonic; >98% growth inhibition; 24 h. The method, then:
as §1, §3
On the technique in general: Dilution methods test growth across graded concentrations, often in twofold steps.

Data set [5] concerns MDCK NBL-2 (ATCC CCL-34) cells. In words: cells. Particulars: for IC50: Canis lupus familiaris, MDCK, 72 h, read-out: IC50 MDCK NBL-2 (ATCC CCL-34).
Text: as §1
The mammalian antiproliferative assay was done according to Lacerna et al. (2019) and modified from the method of Mossman (1983). […] At 72 h post-incubation, the cells were treated with MTT and the absorbance at 570 nm was read. The IC50 was calculated using GraphPad Prism 5 based on a 4-point sigmoidal non-linear regression analysis of cell viability vs. log concentration of the inhibitor. The assay was done in two independent trials with four independent replicates.

On to `CCCCC[C@@H]1O[C@H]1CCCCCCCCCCC(=O)O` [Compound 6, trans-12,13-epoxy-octadecanoic acid], for which, in data set [1], the “inhibition of biofilm formation in S. epidermidis (in words)” value (shortened to “inhibition of biofilm formation”) is given as “inhibited biofilm formation”, the “Selectivity Index (MICPlanktonic/MBICBiofilm)” value is above 8 and the “MBIC S. epidermidis RP62A (ATCC 35984)” value stood at 16 µg/mL. Moreover, the MIC in data set [2] was above 128 µg/mL. For the same compound, in data set [3], the MIC was above 128 µg/mL. In data set [4], the MIC was above 128 µg/mL. Also, in data set [5], the “cytotoxicity / antiproliferative action in mammalian MDCK cells (in words)” value (“cytotoxicity / antiproliferative action” for short) is given as “no antiproliferative action” and the IC50 was above 128 µg/mL.

`O=C(N[C@H](CO)[C@H](O)c1ccc([N+](=O)[O-])cc1)C(Cl)Cl` [chloramphenicol] registered an MIC in data set [2] of 8 µg/mL (≈ 24.8 µM).

Consider `Cc1onc(-c2ccccc2)c1C(=O)N[C@@H]1C(=O)N2[C@@H]1SC(C)(C)[C@@H]2C(=O)O` [oxacillin], for which the MIC turned out to be 8 µg/mL (≈ 19.9 µM) in data set [3] and 0.5 µg/mL (≈ 1.25 µM) in data set [4].

In the case of `CCCCCCCCCCCCCCCCCC(=O)O` [Compound 5, stearic acid], in data set [1], the “Selectivity Index (MICPlanktonic/MBICBiofilm)” value is around 1 and the “MBIC S. epidermidis RP62A (ATCC 35984)” value is above 128 µg/mL. In addition, in data set [2], the MIC was above 128 µg/mL and the “bioactivity against microbial pathogens or mammalian cells (in words)” value is on record as “did not show any significant bioactivity”. In addition, the MIC in data set [3] is above 128 µg/mL. In data set [4], this compound displayed an MIC above 128 µg/mL. Moreover, the IC50 in data set [5] was above 128 µg/mL.

`CCCCC/C=C\CCCCCCCCCCC(=O)O` [Compound 7, 12(Z)-octadecenoic acid]: the “MBIC S. epidermidis RP62A (ATCC 35984)” value in data set [1] is given as above 128 µg/mL.

In the case of `CCCCC/C=C/C(=O)CCCCCCCC(=O)O` [Compound 2, (E)-9-oxohexadec-10-enoic acid], the “inhibition of biofilm formation” value in data set [1] is listed as “inhibited biofilm formation”. In addition, the “Selectivity Index (MICPlanktonic/MBICBiofilm)” value in data set [1] is around 1. In addition, the MIC in data set [2], in data set [3] and in data set [4] was above 128 µg/mL each time. In addition, the IC50 in data set [5] was found to be 33 µg/mL (≈ 123 µM).

For `CCCCC/C=C/C(=O)CCCCCCCCCC(=O)O` [Compound 3, (E)-11-oxooctadec-12-enoic acid], in data set [1], the “inhibition of biofilm formation” value was “inhibited biofilm formation; also recorded: potent but non-selective activity”, the “Selectivity Index (MICPlanktonic/MBICBiofilm)” value is recorded as around 1 and the “MBIC S. epidermidis RP62A (ATCC 35984)” value turned out to be 16 µg/mL. Besides, in data set [2], the “antimicrobial activity against planktonic S. epidermidis (in words)” value was “showed antimicrobial activity” and the MIC came to 16 µg/mL (≈ 54 µM). For the same compound, the MIC in data set [3] was above 128 µg/mL. For the same compound, in data set [4], the MIC is above 128 µg/mL. For the same compound, in data set [5], the “cytotoxicity / antiproliferative action” value was “demonstrated cytotoxicity” and the IC50 turned out to be 13.6 µg/mL (≈ 45.9 µM).

On to `CCCCCC1OC1C(O)CCCCCCCCCC(=O)O` (stereo not shown) [Compound 1, 11-hydroxy-12,13-epoxy-octadecanoic acid], for which, in data set [1], the “inhibition of biofilm formation” value is listed as “inhibited biofilm formation”, the “Selectivity Index (MICPlanktonic/MBICBiofilm)” value is reported as around 4 and the “MBIC S. epidermidis RP62A (ATCC 35984)” value was determined as 32 µg/mL. This compound had an MIC in data set [2] of 128 µg/mL (≈ 407 µM). Further, the MIC in data set [3] is above 128 µg/mL. In addition, in data set [4], the MIC is above 128 µg/mL. Moreover, the IC50 in data set [5] turned out to be 61.7 µg/mL (≈ 196 µM).

On to `CCCCCCCCCCCCCCCC(=O)O` [Compound 4, palmitic acid], for which, in data set [1], the “Selectivity Index (MICPlanktonic/MBICBiofilm)” value is on record as around 1 and the “MBIC S. epidermidis RP62A (ATCC 35984)” value is reported as above 128 µg/mL. Further, in data set [2], the MIC is above 128 µg/mL and the “bioactivity against microbial pathogens or mammalian cells (in words)” value is on record as “did not show any significant bioactivity”. For the same compound, the MIC in data set [3] was above 128 µg/mL. The compound further yielded an MIC in data set [4] above 128 µg/mL. Moreover, in data set [5], the “cytotoxicity / antiproliferative action” value was “cytotoxic activity” and the IC50 was above 128 µg/mL.
